Patent US8956645B2, “Water-soluble pharmaceutical composition comprising at least one therapeutically active substance having hydrophobic properties and at least one compound selected from among sialoglycosphingolipids, glycosphingolipids or a mixture of sialoglycosphingolipids and glycosphingolipids” (Consejo Nacional de Investigaciones Cientificas y Tecnicas …, priority 2010, dated 2015)

Key:
[1] = system: HEP-2 and Hela cells; assay: Cell viability by MTT assay, tumoral cells; format: cell-based; details: 24 hours
Protocol: FIG. 7: HEP-2 and HELA cells of tumor origin were incubated with increasing concentrations of: a)-( ? ) Ptx in DMSO, b)-( ? ) Ptx-GM1 micelles 1/25, c)-( ? ) GM1 micelles and d)-( ? ) micelles of the GM1-Ptx-albumine complex. Cellular viability was evaluated using MTT assay after 24 hs incubation.
(§1) Different cell types, tumoral such as HEP-2 and Hela, and non-tumoral as VERO and MA were incubated in MEM medium containing 2% fetal bovine serum (Natocor-Villa Carlos Paz—Córdoba—Argentina) in a CO2 incubator with 5% CO2, to confluence. Different concentrations of the compositions mentioned below were added to the cell culture: […]
(§2) a)—Ptx in DMSO as positive control b)—Ptx-GM1 micelles 1/25 molar ratio c)—GM1 micelles in equal concentrations as in b), to control the effect of the GM1 itself, and d)—micelles of the albumin-Ptx-GM1 complex
(§3) Cell viability was evaluated by MTT assay after 24 hours of incubation.

[2] = system: VERO and MA cells; assay: Cell viability by MTT assay, non-tumoral cells; format: cell-based; details: 24 hours
Protocol: FIG. 6: VERO and MA cells of non tumoral origin were incubated with increasing concentrations of: a)-( ? ) Ptx in DMSO, b)-( ? ) micelles of Ptx-GM1 1/25, c)-( ? ) micelles of GM1 and d)-( ? ) micelles of the albumine-Ptx-GM1 complex. Cellular viability was evaluated using MTT assay marker after 24 hs incubation.
as §1, §2, §3

CC(=O)O[C@H]1C(=O)[C@@]2(C)[C@H]([C@H](OC(=O)c3ccccc3)[C@]3(O)C[C@H](OC(=O)[C@H](O)[C@@H](NC(=O)c4ccccc4)c4ccccc4)C(C)=C1C3(C)C)[C@]1(OC(C)=O)CO[C@@H]1C[C@@H]2O [Ptx, paclitaxel]
concentration producing complete death [1]: 10 ng/mL
concentration producing complete death [2]: 100 ng/mL
